Test results reported in US9821035B2, “Preparation for preventing or treating type I diabetes” (REGIMMUNE CORPORATION, priority 2012, dated 2017).

Legend:
Format in all cases: cell-based
[1] = test system: IL-10; assay: Cytokine production in culture supernatant of spleen cells from drug-administered NOD mice: IL-10; settings: spleen cells of dosed NOD mice, cultured four days
Procedure: (§1) 1-5. Analysis of Insulin-B-Peptide-Specific Cell Proliferation of Treg Cells and Measurement of Cytokine Production To NOD mice (NOD/ShiJcl, CLEA Japan Inc., Tokyo, Japan), which are animals representing a spontaneous model for type I diabetes, was intraperitoneally administered 100 μl of the sample for administration, twice a week between the age of 5 to 10 weeks, which was a period prior to the onset of type I diabetes. The spleen was removed from 13-week-old mice and then spleen cells were prepared and subjected to cell culture. Groups receiving test drugs were the following five groups: 1) a group receiving no drug (i.e., a group receiving physiological saline), 2) a group receiving the insulin-B-peptide-incorporated α-GalCer-liposome, 3) a group receiving the insulin-B-peptide-incorporated liposome, 4) a group receiving the α-GalCer-liposome, and 5) a group receiving the α-GalCer solution, with N=2 to 3 animals per group. After preparation of spleen cells from the animals of each of the groups, spleen cells were loaded with CFSE (carboxyfluorescein diacetate succinimidyl ester), a dye used in cell proliferation assays, and subjected to reaction, followed by washing the cells to remove the dye, in regular procedures. […] The concentrations of IL-2 and IL-10 in the culture supernatant were also measured.

[2] = test system: IL-2; assay: Cytokine production in culture supernatant of spleen cells from drug-administered NOD mice: IL-2; settings: spleen cells of dosed NOD mice, cultured four days
Procedure: as §1

[3] = test system: CD4(+) Foxp3(+) cells (Treg cells); assay: Insulin-B-peptide-specific proliferation of Treg cells, CFSE/FACS on spleen cells from drug-administered NOD mice (Example 3); settings: FIG. 3B
Procedure: as §1

CCCCCCCCCCCCCCCCCCCCCCCCCC(=O)N[C@@H](CO[C@H]1O[C@H](CO)[C@H](O)[C@H](O)[C@H]1O)[C@H](O)[C@H](O)CCCCCCCCCCCCCC [α-GalCer solution, (2S,3S,4R)-1-O-(α-D-galactopyranosyl)-2-hexacosanoylamino-1,3,4-octadecanetriol]
Concentration of IL-10 in culture supernatant [1]: 1.3 pg/mL
Concentration of IL-2 in culture supernatant [2]: 0.9 pg/mL
ratio of the percentage of proliferated cells when no antigen was added to the percentage when the insulin B peptide was added [3]: 1.04
